Measurements as given in patent US20250099420A1, “SMALL MOLECULE MODULATORS OF GPR139 COMPLEX” (University of Florida Research Foundation, Incorporated, priority 2022, published 2025).
pEC50: −log10 of the molar value. Like-named read-outs stand apart in the source and are kept apart here.

Experiments:
parental HEK cells = assay: HEK parental Agonist Counterscreen Assay (non-transfected cells); format: cell-based; conditions: for Averaged Max % Response (±St. Dev.): activity relative to known control
Excerpt: The high control for the agonist counterscreen was Forskolin not acetylcholine.

GPR139 = molecular target: T1, GPR139 (Homo sapiens, UniProt Q6DWJ6); assay: GPR139 Agonist titration / agonist counterscreen assay (calcium detection, HEK-GPR139 cells); format: cell-based; parameters: expressed in transfected cells; host or cells: HEK Aequorin cells, Maxcyte transient transfection; conditions: GPR139 Agonist Activity; for pEC50: read-out: EC50; for Averaged Max % Response (±St. Dev.): activity relative to known control
T1 sequence (Q6DWJ6 1-353): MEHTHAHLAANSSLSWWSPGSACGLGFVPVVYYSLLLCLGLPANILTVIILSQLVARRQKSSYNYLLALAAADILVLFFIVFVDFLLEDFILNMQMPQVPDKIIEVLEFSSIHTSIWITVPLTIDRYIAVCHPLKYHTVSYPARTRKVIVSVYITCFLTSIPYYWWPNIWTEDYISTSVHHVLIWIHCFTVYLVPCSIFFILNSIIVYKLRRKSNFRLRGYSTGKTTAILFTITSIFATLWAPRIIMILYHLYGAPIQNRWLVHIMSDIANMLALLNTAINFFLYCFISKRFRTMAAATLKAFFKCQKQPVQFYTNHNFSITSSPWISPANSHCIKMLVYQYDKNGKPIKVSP
Procedure: GPR activity was assessed using a calcium detection assay. […] Negative control samples were treated with DMSO. […] Intracellular calcium was measured using Calcium 5.

[1] = HEK Agonist Activity section of Table 4 (parental HEK counterscreen)
[2] = Homo sapiens, HEK293, HEK Agonist Activity section of Table 4 (parental HEK counterscreen)
[3] = Homo sapiens, HEK293, HEK Agonist Activity, parental non-transfected HEK cells
[4] = values printed in E-notation without unit

Row | SMILES | Lipophilic Efficiency (logD) (parental HEK cells; HEK Agonist Activity section) | Lipophilic Efficiency (logP) (parental HEK cells; HEK Agonist Activity section) | pEC50 (parental HEK cells; [1]) | Averaged Max % Response (±St. Dev.) (parental HEK cells; HEK Agonist Activity section) [%] | Efficiency Ligand (GPR139) | Hill Slope (GPR139) | Lipophilic Efficiency (logD) (GPR139) | Lipophilic Efficiency (logP) (GPR139) | pEC50 (GPR139; HEK-GPR139 cells) | Averaged Max % Response (±St. Dev.) (GPR139) [%] | pEC50 (parental HEK cells; [2]) | Lipophilic Efficiency (logD) (parental HEK cells; HEK Agonist Activity) | Lipophilic Efficiency (logP) (parental HEK cells; HEK Agonist Activity) | Averaged Max % Response (±St. Dev.) (parental HEK cells; HEK Agonist Activity) [%] | pEC50 (parental HEK cells; [3]) | Lipophilic Efficiency (logD) (GPR139; based on logD) | Lipophilic Efficiency (logP) (GPR139; based on logP) | Hill Slope (GPR139; fitted dose-response curve) | Efficiency Ligand (GPR139; ligand efficiency) | pEC50 (GPR139; [4])
1 | CCOC(=O)c1ccc(NC(=O)Cn2c(C)c(C=O)c3ccccc32)cc1 [SR-01000248261] | 1.37 | 1.37 | < 4.85 | 19.46 ± 6.76 | 0.30 | 1.06 | 2.28 | 2.28 | 5.77 | 81.40 ± 9.66 |  |  |  |  |  |  |  |  |  | 
2 | CC1=NNC(=O)C1CC(=O)N/N=C/c1c(Cl)cccc1Cl (centres unmarked) [SR-01000310664] | 3.00 | 3.00 | < 4.85 | 28.78 ± 5.42 | 0.41 | 0.70 | 4.32 | 4.32 | 6.17 | 89.42 ± 11.78 |  |  |  |  |  |  |  |  |  | 
3 | CC(C)Cn1c2c(c(=O)[nH]c1=O)C(NC(=O)CCC1CCCCC1)(C(F)(F)F)C(=O)N2 (centres unmarked) [SR-01000086488] | 2.44 | 2.40 |  | 1.08 ± 3.12 | 0.29 | 1.22 | 3.95 | 3.92 | 6.37 | 78.41 ± 20.14 | < 4.85 |  |  |  |  |  |  |  |  | 
4 | O=C(Cn1nnc2c1-c1ccccc1OC2)Nc1cccc(Cl)c1 [SR-01000135042] | 1.77 | 1.77 |  | 16.89 ± 7.08 | 0.37 | 0.33 | 3.32 | 3.32 | 6.40 | 104.44 ± 8.42 | < 4.85 |  |  |  |  |  |  |  |  | 
5 | COc1cc(OC)cc(C(=O)NNC(=O)C(C)Oc2ccc(Cl)cc2Cl)c1 (centres unmarked) [SR-01000358013] |  |  |  |  |  |  |  |  |  | 146.26 ± 17.42 |  | 1.68 | 1.64 | 22.28 ± 14.14 | < 4.85 | 4.56 | 4.52 | 0.21 | 0.40 | 
6 | COc1ccc(NC(=O)Cn2ncc3c2-c2ccccc2OC3)cc1Cl [SR-01000135070] | 1.93 | 1.93 | < 4.85 | 7.87 ± 13.27 |  |  |  |  |  | 89.37 ± 8.48 |  |  |  |  |  | 4.16 | 4.16 | 0.51 | 0.38 | 7.08
7 | COc1cccc(CNC(=O)Nc2ccc(-c3cn[nH]c3)cc2)c1 [SR-00000005253] | 2.23 | 2.23 |  | −10.69 ± 5.73 |  |  |  |  |  | 80.15 ± 4.78 | < 4.85 |  |  |  |  | 4.08 | 4.08 | 0.64 | 0.39 | 6.70
8 | Cc1cc(C(=O)CCC(=O)NNC(=O)CSc2nc3ccccc3s2)c(C)s1 [SR-01000070591] |  |  |  |  |  |  |  |  |  | 126.06 ± 10.32 |  | 1.00 | 1.00 | −5.74 ± 0.47 | < 4.84 | 4.02 | 4.02 | 0.31 | 0.39 | 7.87
9 | COc1ccc(CCC(=O)Nc2ccc(-c3cn[nH]c3)c(OC)c2)cc1 [SR-00000005955] | 1.73 | 1.73 |  | 18.59 ± 8.23 |  |  |  |  |  | 95.13 ± 3.75 | < 4.85 |  |  |  |  | 4.08 | 4.08 | 1.31 | 0.39 | 7.21
10 | O=C(COc1ccc2ccccc2c1)NNC(=O)Cc1cccc2ccccc12 [SR-01000316766] | 1.14 | 1.14 |  | −0.94 ± 3.21 |  |  |  |  |  | 101.45 ± 17.20 | < 4.85 |  |  |  |  | 3.15 | 3.15 | 1.07 | 0.33 | 6.86
11 | COc1ccc(NC(=O)NC(O)(O)c2cccc(C(C)=O)c2)cc1 [SR-01000428888] | 0.38 | 0.38 |  | −2.45 ± 12.32 | 0.38 | 0.88 | 2.10 | 2.10 | 6.50 | 105.90 ± 33.97 | < 4.79 |  |  |  |  |  |  |  |  | 
12 | O=C(CN1CCCN(Cc2ccc(F)cc2Cl)C1=O)NC1CCCCCC1 [SR-01000146442] |  |  |  |  |  |  |  |  |  | 108.38 ± 13.78 |  | 1.82 | 1.82 | −6.48 ± 10.66 | < 4.85 | 4.80 | 4.80 | 0.79 | 0.41 | 7.83
